Measured values reported in patent US20100152434A1, “Protein Kinase-binding Nucleosides and Associated Methods” (priority 2007, published 2010).
Like-named read-outs stand apart in the source and are kept apart here.

Assays:
HOP-62 = settings: HOP-62
HCC-2998 = settings: HCC-2998
RXF 393 = settings: RXF 393
SF-268 = experiment: cells; settings: Homo sapiens
788-0 = experiment: cells; settings: Homo sapiens, 786-0
ACHN = experiment: cells; settings: Homo sapiens
NCI-H23 [1] = experiment: cells; settings: Homo sapiens
HCT-15 [2] = test system: HCT-15
HCT-15 [3] = experiment: cells; settings: Homo sapiens
NCI-H23 [4] = test system: NCI-H23
SNB-75 = experiment: cells; settings: Homo sapiens
OVCAR-5 = experiment: cells; settings: Homo sapiens
RPMI-8226 = experiment: cells; settings: Homo sapiens

SMILES: CNC(=O)NC[C@H]1O[C@@H](n2cnc3c(NC(=O)Nc4ccccc4)ncnc32)[C@H](O[Si](C)(C)C(C)(C)C)[C@@H]1CC(=O)N(C)OC [Compound 13, 2′-O-(tert-Butyldimethylsilyl)-3′,5′-dideoxy-3′-[(N-methoxy-N-methylcarboxamido)methyl]-5′-[(N-methylcarbamoyl)amino]-N^6-(N-phenylcarbamoyl)adenosine]
- TGI (A498): 4.03E−5 Molar
- Percent Growth (A498; Log10 Concentration −4.0): −16%
- Percent Growth (A498; Log10 Concentration −5.0): 24%
- Percent Growth (A498; Log10 Concentration −6.0): 87%
- Percent Growth (A498; Log10 Concentration −7.0): 96%
- Percent Growth (A498; Log10 Concentration −8.0): 90%
- TGI (NCI-H226): >1.00E−4 Molar
- Percent Growth (NCI-H226; Log10 Concentration −4.0): 40%
- Percent Growth (NCI-H226; Log10 Concentration −5.0): 66%
- Percent Growth (NCI-H226; Log10 Concentration −6.0): 99%
- Percent Growth (NCI-H226; Log10 Concentration −7.0): 111%
- Percent Growth (NCI-H226; Log10 Concentration −8.0): 103%
- TGI (HOP-62): >1.00E−4 Molar
- Percent Growth (HOP-62; Log10 Concentration −4.0): 28%
- Percent Growth (HOP-62; Log10 Concentration −5.0): 64%
- Percent Growth (HOP-62; Log10 Concentration −6.0): 86%
- Percent Growth (HOP-62; Log10 Concentration −7.0): 88%
- Percent Growth (HOP-62; Log10 Concentration −8.0): 92%
- TGI (HCC-2998): >1.00E−4 Molar
- Percent Growth (HCC-2998; Log10 Concentration −4.0): 33%
- Percent Growth (HCC-2998; Log10 Concentration −5.0): 66%
- Percent Growth (HCC-2998; Log10 Concentration −6.0): 100%
- Percent Growth (HCC-2998; Log10 Concentration −7.0): 97%
- Percent Growth (HCC-2998; Log10 Concentration −8.0): 102%
- TGI (RXF 393): 3.80E−5 Molar
- Percent Growth (RXF 393; Log10 Concentration −4.0): −36%
- Percent Growth (RXF 393; Log10 Concentration −5.0): 49%
- Percent Growth (RXF 393; Log10 Concentration −6.0): 98%
- Percent Growth (RXF 393; Log10 Concentration −7.0): 100%
- Percent Growth (RXF 393; Log10 Concentration −8.0): 103%
- TGI (SK-MEL-2): 8.31E−5 Molar
- Percent Growth (SK-MEL-2; Log10 Concentration −4.0): −5%
- Percent Growth (SK-MEL-2; Log10 Concentration −5.0): 62%
- Percent Growth (SK-MEL-2; Log10 Concentration −6.0): 92%
- Percent Growth (SK-MEL-2; Log10 Concentration −7.0): 83%
- Percent Growth (SK-MEL-2; Log10 Concentration −8.0): 85%
- TGI (MDA-MB-231/ATCC): >1.00E−4 Molar
- Percent Growth (MDA-MB-231/ATCC; Log10 Concentration −4.0): 5%
- Percent Growth (MDA-MB-231/ATCC; Log10 Concentration −5.0): 55%
- Percent Growth (MDA-MB-231/ATCC; Log10 Concentration −6.0): 94%
- Percent Growth (MDA-MB-231/ATCC; Log10 Concentration −7.0): 104%
- Percent Growth (MDA-MB-231/ATCC; Log10 Concentration −8.0): 97%
- GI50 (SF-268; SF-268): 8.29 µM
- CC50 (SF-268; SF-268, read-out: LC50): > 100 µM
- TGI (SK-MEL-5): >1.00E−4 Molar
- Percent Growth (SK-MEL-5; Log10 Concentration −4.0): 11%
- Percent Growth (SK-MEL-5; Log10 Concentration −5.0): 38%
- Percent Growth (SK-MEL-5; Log10 Concentration −6.0): 89%
- Percent Growth (SK-MEL-5; Log10 Concentration −7.0): 98%
- Percent Growth (SK-MEL-5; Log10 Concentration −8.0): 104%
- GI50 (788-0): 9.01 µM
- TGI (SK-OV-3): >1.00E−4 Molar
- Percent Growth (SK-OV-3; Log10 Concentration −4.0): 38%
- Percent Growth (SK-OV-3; Log10 Concentration −5.0): 82%
- Percent Growth (SK-OV-3; Log10 Concentration −6.0): 95%
- Percent Growth (SK-OV-3; Log10 Concentration −7.0): 97%
- Percent Growth (SK-OV-3; Log10 Concentration −8.0): 96%
- TGI (M14): >1.00E−4 Molar
- Percent Growth (M14; Log10 Concentration −4.0): 18%
- Percent Growth (M14; Log10 Concentration −5.0): 57%
- Percent Growth (M14; Log10 Concentration −6.0): 91%
- Percent Growth (M14; Log10 Concentration −7.0): 98%
- Percent Growth (M14; Log10 Concentration −8.0): 98%
- TGI (HCT-116): >1.00E−4 Molar
- Percent Growth (HCT-116; Log10 Concentration −4.0): 6%
- Percent Growth (HCT-116; Log10 Concentration −5.0): 26%
- Percent Growth (HCT-116; Log10 Concentration −6.0): 89%
- Percent Growth (HCT-116; Log10 Concentration −7.0): 90%
- Percent Growth (HCT-116; Log10 Concentration −8.0): 93%
- GI50 (ACHN): 14.4 µM
- CC50 (ACHN; read-out: LC50): > 100 µM
- GI50 (NCI-H23 [1]; NCI-H23): 57.2 µM
- CC50 (NCI-H23 [1]; NCI-H23, read-out: LC50): > 100 µM
- TGI (HCT-15 [2]): >1.00E−4 Molar
- Percent Growth (HCT-15 [2]; Log10 Concentration −4.0): 37%
- Percent Growth (HCT-15 [2]; Log10 Concentration −5.0): 40%
- Percent Growth (HCT-15 [2]; Log10 Concentration −6.0): 93%
- Percent Growth (HCT-15 [2]; Log10 Concentration −7.0): 94%
- Percent Growth (HCT-15 [2]; Log10 Concentration −8.0): 96%
- TGI (CCRF-CEM): >1.00E−4 Molar
- Percent Growth (CCRF-CEM; Log10 Concentration −4.0): 23%
- Percent Growth (CCRF-CEM; Log10 Concentration −5.0): 39%
- Percent Growth (CCRF-CEM; Log10 Concentration −6.0): 96%
- Percent Growth (CCRF-CEM; Log10 Concentration −7.0): 100%
- Percent Growth (CCRF-CEM; Log10 Concentration −8.0): 101%
- GI50 (HCT-15 [3]; HCT-15): 6.47 µM
- CC50 (HCT-15 [3]; HCT-15, read-out: LC50): > 100 µM
- TGI (SF-539): >1.00E−4 Molar
- Percent Growth (SF-539; Log10 Concentration −4.0): 23%
- Percent Growth (SF-539; Log10 Concentration −5.0): 65%
- Percent Growth (SF-539; Log10 Concentration −6.0): 89%
- Percent Growth (SF-539; Log10 Concentration −7.0): 94%
- Percent Growth (SF-539; Log10 Concentration −8.0): 96%
- TGI (LOX IMVI): >1.00E−4 Molar
- Percent Growth (LOX IMVI; Log10 Concentration −4.0): 35%
- Percent Growth (LOX IMVI; Log10 Concentration −5.0): 43%
- Percent Growth (LOX IMVI; Log10 Concentration −6.0): 94%
- Percent Growth (LOX IMVI; Log10 Concentration −7.0): 96%
- Percent Growth (LOX IMVI; Log10 Concentration −8.0): 97%
- TGI (NCI-H23 [4]): >1.00E−4 Molar
- Percent Growth (NCI-H23 [4]; Log10 Concentration −4.0): 43%
- Percent Growth (NCI-H23 [4]; Log10 Concentration −5.0): 71%
- Percent Growth (NCI-H23 [4]; Log10 Concentration −6.0): 99%
- Percent Growth (NCI-H23 [4]; Log10 Concentration −7.0): 103%
- Percent Growth (NCI-H23 [4]; Log10 Concentration −8.0): 106%
- GI50 (SNB-75; SNB-75): 12.7 µM
- CC50 (SNB-75; SNB-75, read-out: LC50): > 100 µM
- GI50 (OVCAR-5; OVCAR-5): 38.2 µM
- CC50 (OVCAR-5; OVCAR-5, read-out: LC50): > 100 µM
- GI50 (RPMI-8226; RPMI-8226): 1.58 µM
- CC50 (RPMI-8226; RPMI-8226, read-out: LC50): > 100 µM
- TGI (OVCAR-8): >1.00E−4 Molar
- Percent Growth (OVCAR-8; Log10 Concentration −4.0): 22%
- Percent Growth (OVCAR-8; Log10 Concentration −5.0): 48%
- Percent Growth (OVCAR-8; Log10 Concentration −6.0): 103%
- Percent Growth (OVCAR-8; Log10 Concentration −7.0): 106%
- Percent Growth (OVCAR-8; Log10 Concentration −8.0): 107%
